“Also recorded” adds a separate entry of the source. Read-outs that look alike come from different tables or passages of the source.

Data set [1] in a line: Solubility of gelatin capsule shells filled with PEG 4000 and free radical scavenger after storage (Example 3). It counts as physicochemical. The settings on record: 5 parts scavenger + 95 parts PEG 4000 packed into capsule, 60°C for a week, content removed; 2nd solution of JP12 (37 °C). How it is done: After storage in a tightly closed glass bottle at 60°C for a week, the capsule content was removed and solubility of each capsule shell was examined in the same manner as in Example 1.

For data set [2] the following is noted: capsule shells stored without contact over 95 parts PEG 6000 + 5 parts scavenger, 60°C for a week, 2nd solution of JP12 (37 °C), observed after 5 to 6 minutes.

Take `N[C@@H](CCC(=O)N[C@@H](CS)C(=O)NCC(=O)O)C(=O)O` [glutathione]: the Solubility entry in data set [1] is reported as “soluble rapidly”.

As to `Cc1c(C)c2c(c(C)c1O)CC[C@@](C)(CCC[C@H](C)CCC[C@H](C)CCCC(C)C)O2` [d-α -tocopherol], the Solubility entry in data set [1] is on record as “soluble rapidly”; in data set [2], “soluble rapidly”; in data set [2] (listed as tocopherol), “completely prevented the decrease of the solubility”.

In the case of polyphosphoric acid, the Solubility entry in data set [1] is reported as “soluble rapidly”.

For `Cc1cc2nc3c(=O)[nH]c(=O)nc-3n(C[C@H](O)[C@H](O)[C@H](O)CO)c2cc1C` [riboflavin], the Solubility entry in data set [2] is recorded as “completely prevented the decrease of the solubility; also recorded: soluble rapidly”.

Turning to `O=P(=O)O` [metaphosphoric acid], the Solubility result in data set [1] is on record as “soluble rapidly”.

For the origin of these results see EP0695544B1, “Hard gelatin capsules resistant to denaturation and the production thereof” (SHIONOGI & CO., LTD., priority 1994, dated 1996).
